We go through 51 compounds from ChEMBL document CHEMBL1127021, “Structure-activity relationship of a series of phenylureas linked to 4-phenylimidazole. Novel potent inhibitors of acyl-CoA:cholesterol O-acyltransferase with antiatherosclerotic activity. 2” (J Med Chem, 1993).

Test [1] relates to Rattus norvegicus. In words: Cholesterol lowering activity in rats after a dose of 1 mg/kg once a day for 2 days. Type of test: functional.
Another test deals with O-acyltransferase (Oryctolagus cuniculus, UniProt G1SFD9). Briefly: Inhibition against acyl coenzyme A:cholesterol acyltransferase derived from rabbit intestine microsomes.
Test [2] concerns the target T1, Acyl-CoA:cholesterol acyltransferase (Oryctolagus cuniculus, UniProt Q95214).
T1 sequence (Q95214 whole entry): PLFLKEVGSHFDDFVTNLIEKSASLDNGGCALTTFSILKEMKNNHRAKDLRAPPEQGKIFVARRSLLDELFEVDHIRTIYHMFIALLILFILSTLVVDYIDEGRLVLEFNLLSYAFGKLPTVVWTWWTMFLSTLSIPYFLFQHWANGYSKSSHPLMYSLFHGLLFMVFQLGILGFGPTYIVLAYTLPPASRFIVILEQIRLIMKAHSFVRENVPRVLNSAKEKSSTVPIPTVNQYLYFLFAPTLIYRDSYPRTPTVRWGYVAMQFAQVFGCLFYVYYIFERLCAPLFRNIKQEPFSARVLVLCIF
Briefly: Inhibition against acyl coenzyme A:cholesterol acyltransferase derived from rabbit aorta homogenate. Type of test: tissue-based.

Test [3] concerns Rattus norvegicus. In words: Cholesterol lowering activity in rats after a dose of 4 mg/kg once a day for 2 days. The format is functional.

Chain of O-acyltransferase (G1SFD9 1-524): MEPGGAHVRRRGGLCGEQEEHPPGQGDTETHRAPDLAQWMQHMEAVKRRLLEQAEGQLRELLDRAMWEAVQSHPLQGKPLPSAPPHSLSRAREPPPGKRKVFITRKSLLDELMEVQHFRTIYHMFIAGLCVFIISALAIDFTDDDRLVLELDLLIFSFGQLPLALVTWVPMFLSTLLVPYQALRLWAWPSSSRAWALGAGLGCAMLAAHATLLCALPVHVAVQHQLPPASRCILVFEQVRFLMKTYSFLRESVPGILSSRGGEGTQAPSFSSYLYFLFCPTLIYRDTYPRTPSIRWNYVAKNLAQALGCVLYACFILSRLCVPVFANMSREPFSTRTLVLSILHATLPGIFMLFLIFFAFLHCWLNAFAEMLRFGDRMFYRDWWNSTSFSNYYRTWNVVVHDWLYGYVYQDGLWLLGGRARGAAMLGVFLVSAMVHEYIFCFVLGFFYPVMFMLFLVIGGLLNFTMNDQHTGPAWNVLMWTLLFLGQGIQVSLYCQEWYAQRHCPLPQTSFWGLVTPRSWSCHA

A word on the IC50: it is the concentration needed to halve the response being measured. The low end stands for inhibition by little substance, the high end for a need for much substance. As for `Cc1cccc(OCCCn2cnc(-c3ccccc3)c2C)c1NC(=O)NCC(C)(C)C`, the Cholesterol reduction in the test on Rattus norvegicus [1] is on record as -64%. In addition, the IC50 on O-acyltransferase came out at 210 nM; in test [2], 140 nM.
For the compound `CCCCCNC(=O)Nc1c(C)cccc1CSCCn1cnc(-c2ccccc2)c1C`, the IC50 against O-acyltransferase amounted to 570 nM; in test [2], 70 nM. The Cholesterol reduction in the test on Rattus norvegicus [3] is reported as -11%.
Take `CCCCCNC(=O)Nc1c(C)cccc1CS(=O)(=O)CCn1cnc(-c2ccccc2)c1C`: the IC50 against O-acyltransferase was more than 1000 nM; in test [2], 90 nM.
In the case of `CCCCCNC(=O)Nc1c(OCCCn2cnc(-c3ccccc3)c2C)cccc1[N+](=O)[O-]`, the IC50 was found to be 44 nM against O-acyltransferase and 60 nM in test [2]. Besides, the Cholesterol reduction in the test on Rattus norvegicus [3] is on record as -52%.
In the case of `CCCCCNC(=O)Nc1c(F)cccc1OCCCn1cnc(-c2ccccc2)c1C`, the IC50 against O-acyltransferase is 69 nM; in test [2], 71 nM. Besides, the Cholesterol reduction in the test with Rattus norvegicus [3] is -30%.
For the compound `CCc1c(-c2ccccc2)ncn1CCCOc1cccc(C)c1NC(=O)NCCC(C)C`, the Cholesterol reduction in the test with Rattus norvegicus [1] is given as -46%. In addition, the 50% inhibitory concentration (IC50) on O-acyltransferase came out at 220 nM; in test [2] it was 72 nM.
Regarding `CCCCCNC(=O)Nc1c(C)cccc1OCCCn1cnc(-c2ccccc2C)c1`, the Cholesterol reduction is -25% in the test with Rattus norvegicus [1] and -48% in the test with Rattus norvegicus [3]. The IC50 was 260 nM on O-acyltransferase and 100 nM in test [2].
For `CCCCCNC(=O)Nc1ccccc1OCCCn1cnc(-c2ccccc2)c1C`, the IC50 on O-acyltransferase is 230 nM; in test [2], 390 nM. The Cholesterol reduction with Rattus norvegicus [3] is given as 3.9%.
`CCCCCNC(=O)Nc1c(C)cccc1OCCCn1cnc(-c2ccccc2[N+](=O)[O-])c1`: the values for the Cholesterol reduction with Rattus norvegicus [1] and in the test with Rattus norvegicus [3] were -46% and -66%, respectively. Also, the IC50 against O-acyltransferase turned out to be 210 nM; in test [2], 170 nM.
For the compound `CCCCCNC(=O)Nc1c(C)cccc1OCCCn1cnc(-c2ccc(Cl)cc2)c1`, the Cholesterol reduction is -43% with Rattus norvegicus [1] and -59% in the test with Rattus norvegicus [3]. Further, the figures for the IC50 (on O-acyltransferase; in test [2]) were 120 nM and 260 nM, respectively.
For the compound `Cc1cccc(OCCCn2cnc(-c3ccccc3)c2C(C)C)c1NC(=O)NCCC(C)C`, in the test with Rattus norvegicus [1], the Cholesterol reduction is -40%. Also, the IC50 was 280 nM against O-acyltransferase and 19 nM in test [2].
As for `CCCCNC(=O)Nc1c(C)cccc1OCCCn1cnc(-c2ccccc2)c1Cl`, in the test with Rattus norvegicus [1], the Cholesterol reduction is -40%. The concentration for half-maximal inhibition (IC50) at O-acyltransferase was determined as 55 nM; in test [2], 210 nM.
`CCCCCNC(=O)Nc1c(O)cccc1OCCCn1cnc(-c2ccccc2)c1C`: the IC50 on O-acyltransferase amounted to 460 nM; in test [2], 960 nM.
Turning to `CCCCCNC(=O)Nc1c(C#N)cccc1OCCCn1cnc(-c2ccccc2)c1C`, the IC50 is more than 1000 nM against O-acyltransferase and 1900 nM in test [2].
Regarding `CCCCCNC(=O)Nc1c(C)cccc1OCC(O)Cn1cnc(-c2ccccc2)c1C` (stereo not drawn), the IC50 worked out at 160 nM at O-acyltransferase and 170 nM in test [2]. The Cholesterol reduction in the test on Rattus norvegicus [3] is -43%.
On to `CCCCCNC(=O)Nc1c(C)cccc1OCCCn1cnc(-c2ccccc2S(C)(=O)=O)c1`, for which the values for the IC50 (against O-acyltransferase; in test [2]) were 160 nM and 410 nM, respectively. Also, in the test on Rattus norvegicus [3], the Cholesterol reduction is -19%.
On to `CCCCCNC(=O)Nc1c(OCCCn2cnc(-c3ccccc3)c2C)cccc1S(C)(=O)=O`, for which the IC50 against O-acyltransferase turned out to be 140 nM; in test [2], 50 nM. Also, in the test with Rattus norvegicus [3], the Cholesterol reduction is given as -33%.
As to `Cc1cccc(OCCCn2cnc(-c3ccccc3)c2)c1NC(=O)NCCC(C)C`, the Cholesterol reduction with Rattus norvegicus [1] is -41%. Further, the half-maximal inhibitory concentration (IC50) at O-acyltransferase amounted to 230 nM; in test [2], 370 nM.
The corresponding values for `CCCCCNC(=O)Nc1c(C)cccc1OCCCn1cnc(-c2ccccc2)c1C(N)=O` are -20%, 180 nM and more than 1000 nM.
Take `Cc1cccc(OCCCn2cnc(-c3ccccc3)c2)c1NC(=O)NCC(C)(C)C`: the Cholesterol reduction with Rattus norvegicus [1] is recorded as -46%. For the same compound, the figures for the IC50 (at O-acyltransferase; in test [2]) were 320 nM and 73 nM, respectively.
Take `Cc1cccc(OCCCn2cnc(-c3ccccc3)c2CO)c1NC(=O)NCCC(C)C`: in the test with Rattus norvegicus [1], the Cholesterol reduction is recorded as -52%. For the same compound, the results for the IC50 (against O-acyltransferase; in test [2]) were 230 nM and 190 nM, respectively.
With `CCCCCNC(=O)Nc1c(C)cccc1C[S+]([O-])CCn1cnc(-c2ccccc2)c1C` (stereo not drawn), the IC50 against O-acyltransferase is more than 1000 nM; in test [2], 440 nM.
Turning to `CCCCCNC(=O)Nc1c(C)cccc1C(=O)NCCn1cnc(-c2ccccc2)c1C`, the half-maximal inhibitory concentration (IC50) against O-acyltransferase is 97 nM; in test [2] it was 280 nM. Further, the Cholesterol reduction in the test on Rattus norvegicus [3] is given as -25%.
Consider `CCCCCNC(=O)Nc1c(NS(=O)(=O)C(F)(F)F)cccc1OCCCn1cnc(-c2ccccc2)c1C`, for which the figures for the IC50 (against O-acyltransferase; in test [2]) were more than 1000 nM and more than 10000 nM, respectively.
On to `CCCCCNC(=O)Nc1c(NC)cccc1OCCCn1cnc(-c2ccccc2)c1C`, for which the IC50 turned out to be 150 nM at O-acyltransferase and 600 nM in test [2]. The Cholesterol reduction in the test on Rattus norvegicus [3] is -35%.
Regarding `CCCCCNC(=O)Nc1c(C)cccc1OCCCn1cnc(-c2c(OC)cc(OC)cc2OC)c1`, the IC50 (against O-acyltransferase; in test [2]) was more than 1000 nM in each case.
Take `CCCCCNC(=O)Nc1c(C)cccc1OCCCn1cnc(-c2cccc([N+](=O)[O-])c2)c1`: in the test on Rattus norvegicus [1], the Cholesterol reduction is on record as -15%. In addition, the results for the IC50 (on O-acyltransferase; in test [2]) were 130 nM and 290 nM, respectively.
For the compound `CCCCCNC(=O)Nc1c(NS(C)(=O)=O)cccc1OCCCn1cnc(-c2ccccc2)c1C`, the IC50 was determined as 140 nM on O-acyltransferase and 480 nM in test [2]. For the same compound, the Cholesterol reduction in the test with Rattus norvegicus [3] is recorded as 3.6%.
For the compound `CCCCCNC(=O)Nc1c(N)cccc1OCCCn1cnc(-c2ccccc2)c1C`, the IC50 on O-acyltransferase is 100 nM; in test [2] it was 590 nM. Also, the Cholesterol reduction in the test on Rattus norvegicus [3] is reported as -21%.
`CCCCCNC(=O)Nc1c(OC)cccc1OCCCn1cnc(-c2ccccc2)c1C`: the results for the IC50 (on O-acyltransferase; in test [2]) were 90 nM and 220 nM, respectively. In addition, the Cholesterol reduction in the test on Rattus norvegicus [3] was -34%.
Turning to `CCCCCNC(=O)Nc1c(C)cccc1[S+]([O-])CCCn1cnc(-c2ccccc2)c1C` (stereo not drawn), the IC50 (against O-acyltransferase; in test [2]) was more than 1000 nM in each case.
`CCCCCNC(=O)Nc1c(C)cccc1S(=O)(=O)CCCn1cnc(-c2ccccc2)c1C`: the results for the IC50 (against O-acyltransferase; in test [2]) were 600 nM and 730 nM, respectively.
In the case of `CCCCNC(=O)Nc1c(C)cccc1OCCCn1cnc(-c2ccccc2)c1CO`, the Cholesterol reduction in the test on Rattus norvegicus [1] is reported as -21%. The IC50 amounted to 190 nM against O-acyltransferase and 590 nM in test [2].
As for `CCCCCNC(=O)Nc1c(CN(C)C)cccc1OCCCn1cnc(-c2ccccc2)c1C`, the IC50 worked out at 1300 nM at O-acyltransferase and 2600 nM in test [2].
With `CCCCNC(=O)Nc1c(C)cccc1OCCCn1cnc(-c2ccccc2)c1`, in the test on Rattus norvegicus [1], the Cholesterol reduction is reported as -7%. This compound came in with an IC50 in test [2] of 310 nM.
On to `CCCCCNC(=O)Nc1c(C)cccc1OCCCn1cnc(-c2ccccc2)c1C(=O)OCC`, for which the IC50 stood at 150 nM at O-acyltransferase and 55 nM in test [2].
Regarding `CCCCCNC(=O)Nc1c(C)cccc1SCCCn1cnc(-c2ccccc2)c1C`, the IC50 was 77 nM at O-acyltransferase and 86 nM in test [2]. The Cholesterol reduction with Rattus norvegicus [3] was -7%.
In the same order, the values of `CCCCCNC(=O)Nc1c(Cl)cccc1OCCCn1cnc(-c2ccccc2)c1C` are 73 nM, 100 nM and -49%.
Regarding `CCCCCNC(=O)Nc1c(C)cccc1OCCCn1cnc(-c2ccccc2)c1CN(C)C`, the values for the IC50 (against O-acyltransferase; in test [2]) were 670 nM and 310 nM, respectively. Besides, the Cholesterol reduction with Rattus norvegicus [3] is listed as -10%.
With `Cc1cccc(OCCCn2cnc(-c3ccccc3)c2Cl)c1NC(=O)NCC(C)(C)C`, in the test with Rattus norvegicus [1], the Cholesterol reduction is reported as -43%. The figures for the IC50 (against O-acyltransferase; in test [2]) were 200 nM and 48 nM, respectively.
With `CCCCCNC(=O)Nc1c(OCCCn2cnc(-c3ccccc3)c2C)cccc1SC`, the IC50 against O-acyltransferase stood at 230 nM; in test [2], 19 nM.
As for `Cc1cccc(OCCCn2cnc(-c3ccccc3)c2Cl)c1NC(=O)NCCC(C)C`, the Cholesterol reduction with Rattus norvegicus [1] is recorded as -59%. The IC50 at O-acyltransferase stood at 140 nM; in test [2] it was 88 nM.
On to `CCCCCNC(=O)Nc1c(C)cccc1OCCCn1cnc(-c2ccccc2)c1C(=O)O`, for which the IC50 (against O-acyltransferase; in test [2]) was more than 1000 nM throughout.
Regarding `CCCCCNC(=O)Nc1c(C)cccc1COCCn1cnc(-c2ccccc2)c1C`, the figures for the IC50 (at O-acyltransferase; in test [2]) were 880 nM and 100 nM, respectively. In addition, the Cholesterol reduction in the test with Rattus norvegicus [3] was determined as 2%.
As to `CCCCCNC(=O)Nc1c(C)cccc1OCCCn1cnc(-c2ccccc2NS(C)(=O)=O)c1`, the IC50 against O-acyltransferase came out at 450 nM; in test [2], 240 nM. For the same compound, the Cholesterol reduction in the test on Rattus norvegicus [3] was -39%.
On to `CCCCCNC(=O)Nc1c(C)cccc1OCCCn1cnc(-c2cccc(NS(C)(=O)=O)c2)c1`, for which the half-inhibitory concentration (IC50) (against O-acyltransferase; in test [2]) was more than 1000 nM in each case.
As for `CCCCCNC(=O)Nc1c(C)cccc1OCCCn1cnc(-c2ccccc2)c1Cl`, the Cholesterol reduction with Rattus norvegicus [1] is recorded as -41%. Inhibition in test [2] was half-maximal at 84 nM (IC50).
Take `CCc1c(-c2ccccc2)ncn1CCCOc1cccc(C)c1NC(=O)NCC(C)(C)C`: the Cholesterol reduction in the test on Rattus norvegicus [1] is listed as -55%. Also, the IC50 on O-acyltransferase was 460 nM; in test [2], 68 nM.
Regarding `CCCCCNC(=O)Nc1c(C)cccc1OCCCn1cnc(-c2ccccc2)c1CS(C)(=O)=O`, the values for the IC50 (against O-acyltransferase; in test [2]) were 410 nM and more than 1000 nM, respectively.
As for `CCCCCNC(=O)Nc1c(C)cccc1OCCCn1cnc(-c2ccc(NS(C)(=O)=O)cc2)c1`, the IC50 (at O-acyltransferase; in test [2]) was more than 1000 nM each time.
`CCCCCNC(=O)Nc1c(C)cccc1OCCCn1cnc(-c2cc(OC)c(OC)c(OC)c2)c1`: the IC50 against O-acyltransferase is 510 nM; in test [2], 900 nM.
